Legend:
Experiment in all cases: Clonogenicity of established tumor cell lines (soft agar)
Assay type in all cases: cell-based, human
IMR-32 (Neuroblastoma) = system: IMR-32 (Neuroblastoma)
Experimental: (§1) Inhibition of tumor growth was tested using cell lines as follows: […]

K562 (Erytholeukemia) = system: K562 (Erytholeukemia)
Experimental: as §1

LA1-5S (Neuroblastoma) = system: LA1-5S (Neuroblastoma)
Experimental: as §1

[1] = system: LNCaP (Prostate Carcinoma)
Experimental: as §1

[2] = system: MCF7-40F (Breast Carcinoma)
Experimental: as §1

[3] = system: MCF7-WT (Breast Carcinoma)
Experimental: as §1

NBAS-5 (Neuroblastoma) = system: NBAS-5 (Neuroblastoma)
Experimental: as §1

NBL-W-N (Neuroblastoma) = system: NBL-W-N (Neuroblastoma)
Experimental: as §1

PC3 (Prostate Carcinoma) = system: PC3 (Prostate Carcinoma)
Experimental: as §1

SK-N-MC (Neuroblastoma) = system: SK-N-MC (Neuroblastoma)
Experimental: as §1

SK-N-SH (Neuroblastoma) = conditions: Homo sapiens; SK-N-SH clonogenicity
Experimental: as §1

[4] = Homo sapiens, IMR-32 clonogenicity
[5] = Homo sapiens, K562 clonogenicity
[6] = Homo sapiens, LA1-5S clonogenicity
[7] = Homo sapiens, LNCaP clonogenicity
[8] = Homo sapiens, MCF7-40F clonogenicity
[9] = Homo sapiens, MCF7-WT clonogenicity
[10] = Homo sapiens, NBAS-5 clonogenicity
[11] = Homo sapiens, NBL-W-N clonogenicity
[12] = Homo sapiens, PC3 clonogenicity
[13] = Homo sapiens, SK-N-MC clonogenicity

For `CCCC(=O)OCOC(=O)CCCC(=O)O` [GOMB, mono-(butyroyloxymethyl)glutarate], the IC50 (IMR-32 (Neuroblastoma); [4]) was 23 µM, the IC90 (IMR-32 (Neuroblastoma); [4]) was 41 µM and the “AB/GOMB IC50 Ratio” value (IMR-32 (Neuroblastoma); IMR-32) was 38. The “AB/GOMB IC90 Ratio” value (IMR-32 (Neuroblastoma); IMR-32) was 87, the IC50 (K562 (Erytholeukemia); [5]) was 43.3 µM and the IC90 (K562 (Erytholeukemia); [5]) was 97 µM. For the same compound, the “AB/GOMB IC50 Ratio” value (K562 (Erytholeukemia); K562) was 17.8, the “AB/GOMB IC90 Ratio” value (K562 (Erytholeukemia); K562) was 68.6 and the IC50 (LA1-5S (Neuroblastoma); [6]) was 39 µM. For the same compound, the IC90 (LA1-5S (Neuroblastoma); [6]) was 59 µM, the “AB/GOMB IC50 Ratio” value (LA1-5S (Neuroblastoma); LA1-5S) was 42 and the “AB/GOMB IC90 Ratio” value (LA1-5S (Neuroblastoma); LA1-5S) was 45. The IC50 [1, 7] was 68.1 µM, the IC90 [1, 7] was 107 µM and the “AB/GOMB IC50 Ratio” value ([1]; LNCaP) was 11.4. For the same compound, the “AB/GOMB IC90 Ratio” value ([1]; LNCaP) was 63, the IC50 [2, 8] was 65.9 µM and the IC90 [2, 8] was 85.3 µM. For the same compound, the “AB/GOMB IC50 Ratio” value ([2]; MCF7-40F) was 12.4, the “AB/GOMB IC90 Ratio” value ([2]; MCF7-40F) was 37.3 and the IC50 [3, 9] was 43.5 µM. For the same compound, the IC90 [3, 9] was 97 µM, the “AB/GOMB IC50 Ratio” value ([3]; MCF7-WT) was 34.5 and the “AB/GOMB IC90 Ratio” value ([3]; MCF7-WT) was 97.7. For the same compound, the IC50 (NBAS-5 (Neuroblastoma); [10]) was 16 µM, the IC90 (NBAS-5 (Neuroblastoma); [10]) was 38 µM and the “AB/GOMB IC50 Ratio” value (NBAS-5 (Neuroblastoma); NBAS-5) was 23.2. For the same compound, the “AB/GOMB IC90 Ratio” value (NBAS-5 (Neuroblastoma); NBAS-5) was 343, the IC50 (NBL-W-N (Neuroblastoma); [11]) was 25 µM and the IC90 (NBL-W-N (Neuroblastoma); [11]) was 70 µM. The “AB/GOMB IC50 Ratio” value (NBL-W-N (Neuroblastoma); NBL-W-N) was 19.6, the “AB/GOMB IC90 Ratio” value (NBL-W-N (Neuroblastoma); NBL-W-N) was 44 and the IC50 (PC3 (Prostate Carcinoma); [12]) was 34.9 µM. For the same compound, the IC90 (PC3 (Prostate Carcinoma); [12]) was 96.1 µM, the “AB/GOMB IC50 Ratio” value (PC3 (Prostate Carcinoma); PC3) was 6.48 and the “AB/GOMB IC90 Ratio” value (PC3 (Prostate Carcinoma); PC3) was 46.6. For the same compound, the IC50 (SK-N-MC (Neuroblastoma); [13]) was 16 µM, the IC90 (SK-N-MC (Neuroblastoma); [13]) was 35 µM and the “AB/GOMB IC50 Ratio” value (SK-N-MC (Neuroblastoma); SK-N-MC) was 13.4. For the same compound, the “AB/GOMB IC90 Ratio” value (SK-N-MC (Neuroblastoma); SK-N-MC) was 37.5, the IC50 (SK-N-SH (Neuroblastoma)) was 28 µM and the IC90 (SK-N-SH (Neuroblastoma)) was 95 µM.
